Experimental data as given in patent publication US20230093476A1, “SUBSTITUTED FUSED IMIDAZOLE DERIVATIVES AND METHODS OF TREATING REFRACTIVE OCULAR DISORDERS” (vTv Therapeutics LLC, priority 2020, published 2023).

Assays:
mouse lens = assay: Lens elasticity under 2-week repeated topical instillation (TID), coverslip method; type: in vivo, C57BL/6J mice; conditions: for efficacy compared with 1.5% solutions comprising LACE: 0.5% and 1.5% solutions; for efficacy compared with 1.5% solutions comprising LACE / Right Eye Change in Diameter (μm) (Mean ± S.E.): TID; for efficacy compared with 1.5% solutions comprising LACE / Right Eye Change in Diameter (μm) (Mean ± S.E.) / elasticity of the mouse lenses: 2 weeks; for Right Eye Change in Diameter (μm) (Mean ± S.E.): treated right eye; for elasticity of the mouse lenses: repeated instillation of 0.15%, 0.5%, 1.5% solutions TID
Experimental: Test compounds (Examples 46 and 134), positive control of Lipoic Acid Choline Ester (LACE), and control treatment were topically administered to right eyes according to methods described in Invest Ophthalmol Vis Sci. 2016; 57:2851-2863. Briefly, eight month old C57BL/6J mice (male) were treated with 2.5 μL of each test sample three times per day (TID) at about 4-hour intervals in the right eyes for 2 weeks. The left eyes were used as untreated controls. Each treatment group included 10 mice, and the vehicle group included 5 mice.
Measurement of lens elasticity was performed according to the methods described in Invest Ophthalmol Vis Sci. 2016; 57:2851-2863. Briefly, after 2-week treatment, mice were euthanized by CO2 overdose. Lenses were removed and analyzed for changes in elasticity. Lenses were placed on slides and photographed. A second photograph was taken after a coverslip was placed on the lens. Equatorial diameters changed by the coverslips placed on the lens were analyzed.

lens from aged mice = assay: In vitro lens elasticity, coverslip method, cultured lenses from aged mice; type: cell-based, C57BL/6J mice; conditions: for efficacy compared with positive control groups using lipoic acid: 50 μM and 500 μM; for Change in Diameter (μm) (Mean ± S.E.): about 14 hours incubation at 37° C., mouse lens; for lens elasticity relative to control: both concentrations of 50 μM and 500 μM; for dose dependence of elasticity increase: from the lower dose (50 μM) to the higher dose (500 μM)
Experimental: Test compounds (Examples 46 and 134) at 50 μM and 500 μM, Positive Control of Lipoic Acid at 50 μM and 500 μM, and control treatment were administered to lenses (12 per group) according to methods described in Invest Ophthalmol Vis Sci. 2016; 57:2851-2863. Briefly, seven month old C57BL/6J mice (male) were euthanized by CO2 overdose. Lenses were removed and placed in culture medium. Lenses were incubated for about 2 hours at 37° C. The medium was replaced with fresh medium supplemented with test compounds or with fresh medium. After about 14 hours incubation at 37° C., lenses were removed from culture medium.
Measurement of lens elasticity was performed according to the methods described in Invest Ophthalmol Vis Sci. 2016; 57:2851-2863. Briefly, lenses were placed on slides and photographed. A second photograph was taken after a coverslip was placed on the lens. Equatorial diameters changed by the coverslips placed on the lens were analyzed.

[1] = Table 3, left eye = untreated control eye of mice given 1.5% solution in right eye
[2] = Table 2, left eye = untreated control eye of mice given 1.5% solution in right eye

SMILES | efficacy compared with 1.5% solutions comprising LACE (mouse lens) | Right Eye Change in Diameter (μm) (Mean ± S.E.) (mouse lens; Table 3, 0.15% solution) | Right Eye Change in Diameter (μm) (Mean ± S.E.) (mouse lens; Table 3, 0.5% solution) | Right Eye Change in Diameter (μm) (Mean ± S.E.) (mouse lens; Table 3, 1.5% solution) | Left Eye Change in Diameter (μm) (Mean ± S.E.) (mouse lens; Table 3, left eye = untreated control eye of mice given 0.15% solution in right eye) | Left Eye Change in Diameter (μm) (Mean ± S.E.) (mouse lens; Table 3, left eye = untreated control eye of mice given 0.5% solution in right eye) | Left Eye Change in Diameter (μm) (Mean ± S.E.) (mouse lens; [1]) | elasticity of the mouse lenses (mouse lens) | efficacy compared with positive control groups using lipoic acid (lens from aged mice) | Change in Diameter (μm) (Mean ± S.E.) (lens from aged mice; 50 μM) | Change in Diameter (μm) (Mean ± S.E.) (lens from aged mice; 500 μM) | lens elasticity relative to control (lens from aged mice) | dose dependence of elasticity increase (lens from aged mice) | Right Eye Change in Diameter (μm) (Mean ± S.E.) (mouse lens; Table 2, 0.15% solution) | Right Eye Change in Diameter (μm) (Mean ± S.E.) (mouse lens; Table 2, 0.5% solution) | Right Eye Change in Diameter (μm) (Mean ± S.E.) (mouse lens; Table 2, 1.5% solution) | Left Eye Change in Diameter (μm) (Mean ± S.E.) (mouse lens; Table 2, left eye = untreated control eye of mice given 0.15% solution in right eye) | Left Eye Change in Diameter (μm) (Mean ± S.E.) (mouse lens; Table 2, left eye = untreated control eye of mice given 0.5% solution in right eye) | Left Eye Change in Diameter (μm) (Mean ± S.E.) (mouse lens; [2])
Cn1c(Nc2nc3ccc(OC(F)(F)F)cc3s2)nc2cc(C(=O)NCCOCCO)ccc21 [Example 46, 1-Methyl-2-(6-trifluoromethoxy-benzothiazol-2-ylamino)-1H-benzoimidazole-5-carboxylic acid [2-(2-hydroxy-ethoxy)-ethyl]-amide] | better than or equivalent to | 42.3 ± 4.0 | 63.2 ± 5.4 | 62.7 ± 3.4 | 32.2 ± 4.3 | 34.7 ± 4.5 | 41.3 ± 3.9 | significantly increased | almost the same | 67.4 ± 5.6 | 80.4 ± 5.3 | significantly increased | dose dependent increase | – | – | – | – | – | –
CN(C)C(=O)CNC(=O)c1ccc2c(c1)nc(Nc1nc3ccc(C(F)(F)F)cc3s1)n2C [Example 134, 1-Methyl-2-(6-trifluoromethyl-benzothiazol-2-ylamino)-1H-benzimidazole-5-carboxylic acid dimethylcarbamoylmethyl-amide] | better than or equivalent to | – | – | – | – | – | – | significantly increased | almost the same | 59.6 ± 3.4 | 72.3 ± 4.0 | significantly increased | dose dependent increase | 46.0 ± 5.0 | 74.3 ± 8.3 | 80.0 ± 5.3 | 33.5 ± 5.9 | 51.7 ± 5.3 | 39.7 ± 6.5
C[N+](C)(C)CCOC(=O)CCCC[C@@H]1CCSS1 [LACE, Lipoic Acid Choline Ester, reference compound] | – | – | – | 60.8 ± 2.9 | – | – | 30.1 ± 6.0 | – | – | – | – | – | – | – | – | 64.5 ± 4.5 | – | – | 41.5 ± 5.2
O=C(O)CCCC[C@@H]1CCSS1 (racemic) [Lipoic Acid, reference compound] | – | – | – | – | – | – | – | – | – | 63.8 ± 6.5 | 83.8 ± 7.4 | – | – | – | – | – | – | – | –
